Experiments:
TNF-α = assay: Effect of compounds on TNF-α in LPS-induced blood of rats in vitro (ELISA); format: cell-based, Sprague Dawley rats; details: compound 100 μM; LPS-induced rat blood, 5 hours; plasma TNF-α by ELISA; read-out: TNF-α inhibition ratio
Protocol: Experimental objective: Detect the effects of compounds on TNF-α in LPS-induced blood of rats in vitro, evaluate the inhibitory effect of the compounds on TNF-α in LPS-induced blood of rats.
Sprague Dawley rats (male, 210-260 g, 8-10 weeks old, Shanghai Slack);
Rat TNF-alpha Quantikine ELISA Kit (R&D, #SRTA00).
Test compounds solutions with a concentration of 1 mM were prepared, 40 μL of which (the final concentration of the compound was 100 μM) was respectively added to 48-hole cell culture plates. Rats were anesthetized with isoflurane, heart blood was collected (heparin was used to anticoagulation). The blood was added to the 48-hole plates holding the test compounds, 320 μL per hole. The 48-hole plates were placed in a cell incubator and incubated for 30 minutes, 40 μL LPS solution was added (100 μg/mL), mixed and placed in the incubator and continued to incubate. the 48-hole plates was taken out after 5 hours, the blood samples were transferred to 1.5 mL centrifuge tubes, centrifuged in a centrifuge (4,500 rpm, 4° C., 5 minutes), the upper plasma were separated, frozen after storage and stored in a refrigerator at −80° C. The levels of TNF-α in plasma samples were measured using the R & D ELISA kit according to the kit instructions the nest day.

[1] = molecular target: T1, recombinant full-length PDE2A protein (Homo sapiens, UniProt O00408); assay: Evaluation of PDE2 phosphodiesterase inhibitory activity in vitro (fluorescence polarization, Transcreener AMP2/GMP2); format: biochemical; details: IC50 classes; substrate 1 μM cGMP; room temperature one hour
T1 construct: Expression of recombinant full-length PDE2A protein in insect Sf9 cells; GST (N); made in house; host or cells: insect Sf9 cells (baculovirus)
Protocol: Experimental objective: The substituted Alexa Fluor 633 fluorescent dye on the AMP/GMP antibodies was detected by the fluorescence polarization analysis to determine the concentration of AMP/GMP produced in the reaction system, which was used to calculate the IC50 values of the test compounds against PDE2 phosphodiesterase.
The measured buffer solution: 10 mM Tris-HCl, pH 7.5, 5 mM MgCl2, 0.01% Brij 35, 1 mM DTT, and 1% DMSO.
Enzyme: Expression of recombinant full-length PDE2A protein in insect Sf9 cells using N-terminal GST-tag with baculovirus.
Transcreener® AMP^2/GMP^2 antibody, AMP2/GMP2 AlexaFluor 633 fluorescent dye.
The enzyme solution was prepared using freshly prepared buffer solution, and then added to the reaction holes, the DMSO solutions of the test compounds were added by the Echo550 non-contact nanoliter acoustic pipetting system, and then pre-incubated at room temperature for 10 minutes, the reaction was initiated by the addition of the substrate (1 μM cGMP), and then reacted at room temperature for one hour. And then the detection system (Transcreener® AMP^2/GMP^2 antibody, AMP2/GMP2 AlexaFluor 633 fluorescent dye) was added, reacted at room temperature for 90 minutes, the fluorescence polarization was detected using Ex/Em 620/688.
The fluorescence polarization intensity was converted to nM concentration by AMP/GMP standard curve, The relative enzyme activity relative to DMSO blank was calculated, IC50 values and curves were calculated using Prism software packages (GraphPad Software, San Diego Calif., USA).

[2] = Pharmacokinetic evaluation of compounds in SD rats; format: in vivo, Sprague Dawley rats; details: male, Sprague-Dawley, rat, plasma, single intravenous injection and oral administration; for bioavailability: read-out: Bioavailability F; for clearance: read-out: Clearance rate; for AUC: read-out: Concentration integration AUC; for half-life: read-out: Half-life T1/2 (converted)
Protocol: Experimental objective: The pharmacokinetics of test compounds in SD rats.
Sprague Dawley rats (male, 200-300 g, 7-9 weeks old, Shanghai Slack).
The pharmacokinetic characteristics of rodents after intravenous and oral administration of the compounds were tested according to the standard protocol, in the experiment, the candidate compound was formulated into a clear solution, and the rats were given single intravenous injection and oral administration. Intravenous and oral solvents are a certain proportion of hydroxypropyl βcyclodextrin aqueous solution or physiological saline solution. Blood samples within 24 hours were collected, centrifuged (3000 g) for 15 minutes, the supernatant were separated to obtain the plasma samples, the protein was precipitated by adding a 4 times volume of acetonitrile solution that containing the internal standard, centrifuged and the supernatant was then centrifuged after adding equal volume of water, then the supernatant was injected, the plasma concentration was quantitatively analyzed by LC-MS/MS analysis, and pharmacokinetics parameters such as peak concentration, peak time, clearance rate, half-life, drug area under the curve, bioavailability etc. are calculated.

T1 sequence (O00408 whole entry, species assumed): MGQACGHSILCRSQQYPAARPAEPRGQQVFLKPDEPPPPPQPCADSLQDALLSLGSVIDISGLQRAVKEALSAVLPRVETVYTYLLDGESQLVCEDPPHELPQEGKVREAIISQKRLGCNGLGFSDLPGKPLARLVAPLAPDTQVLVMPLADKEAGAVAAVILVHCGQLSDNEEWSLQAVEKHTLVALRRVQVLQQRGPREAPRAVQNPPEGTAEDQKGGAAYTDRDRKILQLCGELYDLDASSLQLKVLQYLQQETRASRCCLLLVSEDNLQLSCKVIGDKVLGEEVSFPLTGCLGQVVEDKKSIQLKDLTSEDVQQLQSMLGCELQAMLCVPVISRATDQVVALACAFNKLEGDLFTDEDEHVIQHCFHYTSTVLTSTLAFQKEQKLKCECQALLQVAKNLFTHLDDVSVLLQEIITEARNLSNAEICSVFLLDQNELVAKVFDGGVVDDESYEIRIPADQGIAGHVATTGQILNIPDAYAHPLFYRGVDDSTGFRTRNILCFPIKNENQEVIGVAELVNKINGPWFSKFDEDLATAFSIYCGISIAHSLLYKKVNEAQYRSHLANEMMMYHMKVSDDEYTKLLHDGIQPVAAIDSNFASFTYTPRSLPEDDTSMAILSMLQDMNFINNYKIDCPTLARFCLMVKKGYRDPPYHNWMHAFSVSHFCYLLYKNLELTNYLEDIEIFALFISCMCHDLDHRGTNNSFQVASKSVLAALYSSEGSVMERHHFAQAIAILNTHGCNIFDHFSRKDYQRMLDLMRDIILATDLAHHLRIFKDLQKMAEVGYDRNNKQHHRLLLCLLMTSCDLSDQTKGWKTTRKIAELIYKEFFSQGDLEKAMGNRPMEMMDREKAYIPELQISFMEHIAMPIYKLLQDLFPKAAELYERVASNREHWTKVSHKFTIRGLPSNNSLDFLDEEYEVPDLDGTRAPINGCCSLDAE

SMILES | inhibition at 100 µM (TNF-α) | IC50 [1] | bioavailability [2] | clearance [2] | AUC [2] | half-life [2]
Cn1cnc2c1c(=O)n(CC1CCC(O)(C(F)(F)F)CC1)c(=O)n2C (single isomer, unassigned) [Embodiment 12 isomer 1] | 60 to 80% | 10 to 50 µM |  |  |  | 
Cn1c(=O)n(CC2CCC(O)(C(F)(F)F)CC2)c(=O)c2c1ncn2CC(F)(F)F (single isomer, unassigned) [Embodiment 45 isomer 2, 1-((4-Hydroxy-4-(trifluoromethyl)cyclohexyl)methyl)-3-methyl-7-(2,2,2-trifluoroethyl)-1H-purine-2,6(3H,7H)-dione] |  | 1 to 10 µM | 17.1% | 58.4 mL/min/kg | 1.29 µM·h | 6.19 h
Cn1c(=O)n(CC2CCC(O)(C(F)(F)F)CC2)c(=O)c2c1ncn2CC1CC1 (single isomer, unassigned) [Embodiment 50 isomer 2, 7-(Cyclopropylmethyl)-1-((4-hydroxy-4-(trifluoromethyl)cyclohexyl)methyl)-3-methyl-1H-purine-2,6(3H,7H)-dione] | 80 to 100% | < 1 µM | 42.6% | 71.6 mL/min/kg | 2.49 µM·h | 0.56 h
Cn1c(=O)n(CC2CCC(C)(O)CC2)c(=O)c2c1ncn2CC1CC1 (single isomer, unassigned) [Embodiment 51 isomer 2] | 80 to 100% | 1 to 10 µM | 47.9% | 54.4 mL/min/kg | 4.39 µM·h | 0.793 h
Cn1cnc2c1c(=O)n(CCCCC(C)(O)C(F)(F)F)c(=O)n2C (stereo not drawn) [Embodiment 1, 3,7-Dimethyl-1-(6,6,6-trifluoro-5-hydroxy-5-methylhexyl)-1H-purine-2,6(3H,7H)-dione] | 60 to 80% | 10 to 50 µM | 59.7% | 54.7 mL/min/kg | 1.91 µM·h | 0.659 h
CCC(O)(CC)CCCCn1c(=O)c2c(ncn2C)n(C)c1=O [Embodiment 2, 1-(5-Ethyl-5-hydroxyheptyl)-3,7-dimethyl-1H-purine-2,6(3H,7H)-dione] |  | 1 to 10 µM | 34.2% | 63.6 mL/min/kg | 0.902 µM·h | 0.481 h
Cn1cnc2c1c(=O)n(CC1CCC(O)(C(F)(F)F)CC1)c(=O)n2C (stereo not drawn) [Embodiment 11, 1-((4-Hydroxy-4-(trifluoromethyl)cyclohexyl)methyl)-3,7-dimethyl-1H-purine-2,6(3H, 7H)-dione] | 60 to 80% | 10 to 50 µM |  |  |  | 
Cn1cnc2c1c(=O)n(Cc1ccc(C(C)(O)C(F)(F)F)cc1)c(=O)n2C (stereo not drawn) [Embodiment 27] | 60 to 80% | 1 to 10 µM | 33.8% | 13.6 mL/min/kg | 11.4 µM·h | 2.96 h
Cn1cnc2c1c(=O)n(Cc1ccc(C(C)(O)C(F)(F)F)nc1)c(=O)n2C (stereo not drawn) [Embodiment 28] |  | 1 to 10 µM | 149% | 12.9 mL/min/kg | 51.2 µM·h | 2.27 h
C[C@H](O)CNCCn1c(=O)c2c(ncn2C)n(C)c1=O [Embodiment 40, (S)-1-(2-((2-Hydroxypropyl)amino)ethyl)-3,7-dimethyl-1H-purine-2,6(3H,7H)-dione] | 60 to 80% |  |  |  |  | 
Cn1c(=O)n(CC2CCC(O)(C(F)(F)F)CC2)c(=O)c2c1ncn2CC(F)(F)F (stereo not drawn) [Embodiment 44, 1-((4-Hydroxy-4-(trifluoromethyl)cyclohexyl)methyl)-3-methyl-7-(2,2,2-trifluoroethyl)-1H-purine-2,6(3H,7H)-dione] | 80 to 100% | 1 to 10 µM |  |  |  | 
Cn1c(=O)n(CC2CCC(O)(C(F)(F)F)CC2)c(=O)c2c1ncn2CC1CC1 (stereo not drawn) [Embodiment 49, 7-(Cyclopropylmethyl)-1-((4-hydroxy-4-(trifluoromethyl)cyclohexyl)methyl)-3-methyl-1H-purine-2,6(3H,7H)-dione] | 80 to 100% | 1 to 10 µM |  |  |  | 
Cn1c(=O)n(Cc2ccc(C(C)(O)C(F)(F)F)nc2)c(=O)c2c1ncn2CC1CC1 (stereo not drawn) [Embodiment 55, 7-(Cyclopropylmethyl)-3-methyl-1-((6-(1,1,1-trifluoro-2-hydroxypropan-2-yl)pyridin-3-yl)methyl)-1H-purine-2,6-(3H,7H)-dione] | 80 to 100% | < 1 µM | 95.8% | 21.5 mL/min/kg | 17.8 µM·h | 2.18 h

— patent publication USRE49128E1, “Hydroxyl purine compounds and applications thereof” (GUANGDONG RAYNOVENT BIOTECH CO., LTD., priority 2014, dated 2022)
